Measured values as given in patent US8999957B2, “Heterocyclic compounds as ERK inhibitors” (Merck Sharp & Dohme Corp., priority 2010, dated 2015).

Biological target: fully phosphorylated, active Mouse ERK2 protein (Mus musculus (Mouse), UniProt P63085)
Assay: Active ERK2 (aERK) IMAP assay, condition 1
Assay type: biochemical
Conditions: aERK assay condition 1, 30 μM ATP
Protocol: (§1) Active ERK2 (aERK) Assay: (Unless Indicated Otherwise, the Data Provided for aERK was obtained using Condition 1)
Activated ERK2 activity was also determined in the IMAP assay format using the procedure outlined above. […] Reactions proceeded for 30 minutes before termination by addition of 60 μl IMAP detection beads in binding buffer. Plates were read as above after 30 minute binding equilibration.

Sequence of fully phosphorylated, active Mouse ERK2 protein (P63085 whole entry): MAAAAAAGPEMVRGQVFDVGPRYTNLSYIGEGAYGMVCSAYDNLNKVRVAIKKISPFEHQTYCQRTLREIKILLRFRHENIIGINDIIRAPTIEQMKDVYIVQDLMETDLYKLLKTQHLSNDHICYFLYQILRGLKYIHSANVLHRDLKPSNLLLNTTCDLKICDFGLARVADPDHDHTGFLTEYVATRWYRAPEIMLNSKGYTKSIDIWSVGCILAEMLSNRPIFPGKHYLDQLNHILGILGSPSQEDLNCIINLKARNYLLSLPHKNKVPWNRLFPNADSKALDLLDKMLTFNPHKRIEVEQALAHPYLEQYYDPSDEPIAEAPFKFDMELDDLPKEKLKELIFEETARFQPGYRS

Compared with `Cn1cc(-c2n[nH]c3ccc(C(=O)N[C@@H]4CCCN(Cc5ccccc5F)C4)cc23)ccc1=O`, `COc1cccc(F)c1CN1CCC[C@@H](NC(=O)c2ccc3[nH]nc(-c4nc5ccccc5s4)c3c2)C1` is 14-fold higher in IC50: 21.1 nM for the first, 296 nM for the second.

Compared with `O=C(NC1CCCCN(CCc2ccc(F)cc2)C1)c1ccc2[nH]nc(-c3ccncc3)c2c1` (stereo not shown), `O=C(CN1CCCCC(NC(=O)c2ccc3[nH]nc(-c4ccncc4)c3c2)C1)c1ccccc1` (stereo not shown) is 2.8-fold lower in IC50: 98.1 nM for the first, 34.8 nM for the second. The second is the more potent here.

Compared with `COC(=O)[C@H]1CC[C@@H](NC(=O)c2ccc3[nH]nc(-c4ccncc4)c3c2)CN1Cc1ccccc1`, `CCNC(=O)[C@@H]1CC[C@@H](NC(=O)c2ccc3[nH]nc(-c4ccncc4)c3c2)CN1Cc1ccccc1` [drawing 353] is 2.8-fold lower in IC50: 133 nM for the first, 48.3 nM for the second. The second is the more potent here.

Compared with `COc1cccc(F)c1CN1CCC[C@@H](NC(=O)c2ccc3[nH]nc(-c4ccc5nsnc5c4)c3c2)C1`, `COc1cccc(F)c1CN1CCC[C@@H](NC(=O)c2ccc3[nH]nc(-c4ccc5nonc5c4)c3c2)C1` is 1.7-fold higher in IC50: 175 nM for the first, 301 nM for the second.

First: COc1cccc(F)c1CN1CCC[C@@H](NC(=O)c2ccc3[nH]nc(-c4ccc5nc(C(F)(F)F)nn5c4)c3c2)C1
Second: COc1cccc(F)c1CN1C[C@H](NC(=O)c2ccc3[nH]nc(-c4ccc5nccn5c4)c3c2)C[C@H](C(F)(F)F)C1 [drawing 317]
The IC50 of the first is 46-fold higher: 822 nM for the first, 18 nM for the second.

Going from `CN1CC(Cc2ccccc2)CC(NC(=O)c2ccc3[nH]nc(-c4ccncc4)c3c2)C1` (stereo not shown) to `Cc1cc(-c2n[nH]c3ccc(C(=O)NC4CC(Cc5c(F)cccc5F)CN(C)C4)cc23)ccn1` (stereo not shown) [N-(5-(2,6-difluorobenzyl)-1-methylpiperidin-3-yl)-3-(2-methylpyridin-4-yl)-1H-indazole-5-carboxamide], the IC50 falls from 8.34 nM to 4.8 nM (1.7-fold). The second is the more potent here.

Going from `CN1CC(Cc2c(F)cccc2F)CC(NC(=O)c2ccc3[nH]nc(-c4ccc5nn(C)cc5c4)c3c2)C1` (stereo not shown) to `CCN1CC(Cc2c(F)cccc2F)CC(NC(=O)c2ccc3[nH]nc(-c4ccc5nn(C)cc5c4)c3c2)C1` (stereo not shown), the IC50 rises from 1.4 nM to 3.09 nM (2.2-fold). The first is the more potent here.

Compared with `Cc1nc2ccc(-c3n[nH]c4ccc(C(=O)N[C@@H]5C[C@H](Cc6c(F)cccc6F)CN(C)C5)cc34)cn2n1`, `Cc1nc2ccc(-c3n[nH]c4ccc(C(=O)N[C@@H]5C[C@@H](Cc6c(F)cccc6F)CN(C)C5)cc34)cn2n1` is 33-fold higher in IC50: 1.45 nM for the first, 47.6 nM for the second. The first is the more potent here.

First: CN1C[C@H](Cc2c(F)cccc2F)C[C@H](NC(=O)c2ccc3[nH]nc(-c4ccn5ccnc5c4)c3c2)C1
Second: CN1C[C@@H](Cc2c(F)cccc2F)C[C@H](NC(=O)c2ccc3[nH]nc(-c4ccn5ccnc5c4)c3c2)C1
The IC50 of the first is 94-fold lower: 1.59 nM for the first, 150 nM for the second.

`CN1CC(Cc2c(F)cccc2F)CC(NC(=O)c2ccc3[nH]nc(-c4ccn5ncnc5c4)c3c2)C1` (stereo not shown) and `CN1CC(Cc2c(F)cccc2F)CC(NC(=O)c2ccc3[nH]nc(-c4ccc5ncsc5c4)c3c2)C1` (stereo not shown) are within 1.5-fold of each other in IC50: 3.83 nM for the first, 2.71 nM for the second.

Compared with `CN1C[C@@H](Cc2c(F)cccc2F)C[C@@H](NC(=O)c2ccc3[nH]nc(-c4ccc5nonc5c4)c3c2)C1`, `CN1C[C@H](Cc2c(F)cccc2F)C[C@@H](NC(=O)c2ccc3[nH]nc(-c4ccc5nonc5c4)c3c2)C1` is 110-fold higher in IC50: 8.82 nM for the first, 1000 nM for the second. The first is the more potent here.

Going from `CN1CC(Cc2c(F)cccc2F)CC(NC(=O)c2ccc3[nH]nc(-c4nc5ccccc5s4)c3c2)C1` (stereo not shown) to `CN1CC(Cc2c(F)cccc2F)CC(NC(=O)c2ccc3[nH]nc(-c4ccc5nsnc5c4)c3c2)C1` (stereo not shown), the IC50 falls from 22.4 nM to 3.23 nM (6.9-fold). The second is the more potent here.

`Cn1cc2cc(-c3n[nH]c4ccc(C(=O)N[C@H]5CCN[C@H](Cc6ccccc6)C5)cc34)ccc2n1` and `O=C(N[C@@H]1CC[C@@H](C(=O)NCc2ccccc2)N(Cc2ccccc2)C1)c1ccc2[nH]nc(-c3ccncc3)c2c1` [drawing 352] are within 1.5-fold of each other in IC50: 33.8 nM for the first, 47.5 nM for the second.

First: COc1cccc(F)c1CN1C[C@H](NC(=O)c2ccc3[nH]nc(-c4ccnc(C)c4)c3c2)CC[C@H]1C(=O)N1CCC(O)CC1 [N-{(3R,6S)-1-(2-fluoro-6-methoxybenzyl)-6-[(4-hydroxypiperidin-1-yl)carbonyl]piperidin-3-yl}-3-(2-methylpyridin-4-yl)-1H-indazole-5-carboxamide]
Second: CNC(=O)[C@@H]1CC[C@@H](NC(=O)c2ccc3[nH]nc(-c4ccncc4)c3c2)CN1Cc1c(F)cccc1OC [drawing 383]
The IC50 of the first is 6.1-fold higher: 14.6 nM for the first, 2.41 nM for the second. The second is the more potent here.

Molecule `COc1cccc(F)c1CN1C[C@H](NC(=O)c2ccc3[nH]nc(-c4ccc5nccn5c4)c3c2)C[C@H](C(F)(F)F)C1` [drawing 377] has an IC50 of 4.46 nM.

Biological target: fully phosphorylated, mouse aERK2 enzyme (Mus musculus (Mouse), UniProt P63085)
Assay: Active ERK2 (aERK) IMAP-FP assay, condition 2
Assay type: biochemical
Conditions: aERK assay condition 2, 30 uM ATP; read-out: aERK IC50
Protocol: as §1
Activated ERK2 activity was determined in an IMAP-FP assay (Molecular Devices). […] Phosphorylation reactions were allowed to proceed for 40-45 minutes and were immediately quenched by the addition of 60 μL IMAP detection beads (1:1000 dilutions) in IMAP binding buffer. Plates were read on EnVision reader after 30 minutes binding equilibration.

Sequence of fully phosphorylated, mouse aERK2 enzyme (P63085 whole entry): as above

Going from `O=C(N[C@@H]1CCCN(CC2CC2)C1)c1ccc2[nH]nc(-c3ccncc3)c2c1` to `NC(=O)C(c1ccccc1F)N1CCC[C@@H](NC(=O)c2ccc3[nH]nc(-c4ccncc4)c3c2)C1` (single isomer, unassigned) [N-((R)-1-((R or S)-2-amino-1-(2-fluorophenyl)-2-oxoethyl)-piperidin-3-yl)-3-(pyridin-4-yl)-1H-indazole-5-carboxamide], the IC50 falls from 206 nM to 72.2 nM (2.9-fold).

Compared with `CN(C)C(=O)C(c1ccccc1F)N1CCC[C@@H](NC(=O)c2ccc3[nH]nc(-c4ccncc4)c3c2)C1` (single isomer, unassigned) [N-((R)-1-((R or S)-2-(dimethylamino)-1-(2-fluorophenyl)-2-oxoethyl)piperidin-3-yl)-3-(pyridin-4-yl)-1H-indazole-5-carboxamide], `CNC(=O)C(c1ccccc1F)N1CCC[C@@H](NC(=O)c2ccc3[nH]nc(-c4ccncc4)c3c2)C1` (single isomer, unassigned) [drawing 501, N-((R)-1-((R or S)-1-(2-fluorophenyl)-2-(methyl-amino)-2-oxoethyl)piperidin-3-yl)-3-(pyridin-4-yl)-1H-indazole-5-carboxamide] is 6.6-fold higher in IC50: 26.4 nM for the first, 175 nM for the second.

Compared with `CNC(=O)C(c1ccccc1F)N1CCC[C@@H](NC(=O)c2ccc3[nH]nc(-c4ccncc4)c3c2)C1` (single isomer, unassigned) [drawing 502, N-((R)-1-((S or R)-1-(2-fluorophenyl)-2-(methyl-amino)-2-oxoethyl)piperidin-3-yl)-3-(pyridin-4-yl)-1H-indazole-5-carboxamide], `CNC(=O)C(c1c(F)cccc1F)N1CCC[C@@H](NC(=O)c2ccc3[nH]nc(-c4ccncc4)c3c2)C1` (single isomer, unassigned) [drawing 505, N-((R)-1-((R or S)-1-(2,6-difluorophenyl)-2-(methylamino)-2-oxoethyl)-piperidin-3-yl)-3-(pyridin-4-yl)-1H-indazole-5-carboxamide] is 98-fold higher in IC50: 4.6 nM for the first, 451 nM for the second. The first is the more potent here.

First: NC(=O)C(c1c(F)cccc1F)N1CCC[C@@H](NC(=O)c2ccc3[nH]nc(-c4ccncc4)c3c2)C1 (single isomer, unassigned) [drawing 503, N-((R)-1-((R or S)-2-amino-1-(2,6-difluorophenyl)-2-oxoethyl)piperidin-3-yl)-3-(pyridin-4-yl)-1H-indazole-5-carboxamide]
Second: CNC(=O)C(c1c(F)cccc1F)N1CCC[C@@H](NC(=O)c2ccc3[nH]nc(-c4ccncc4)c3c2)C1 (single isomer, unassigned) [drawing 506, N-((R)-1-((S or R)-1-(2,6-difluorophenyl)-2-(methylamino)-2-oxoethyl)piperidin-3-yl)-3-(pyridin-4-yl)-1H-indazole-5-carboxamide]
The IC50 of the first is 11-fold higher: 222 nM for the first, 20.8 nM for the second. The second is the more potent here.

Going from `NC(=O)C(c1c(F)cccc1F)N1CCC[C@@H](NC(=O)c2ccc3[nH]nc(-c4ccncc4)c3c2)C1` (single isomer, unassigned) [drawing 504, N-((R)-1-((S or R)-2-amino-1-(2,6-difluorophenyl)-2-oxoethyl)piperidin-3-yl)-3-(pyridin-4-yl)-1H-indazole-5-carboxamide] to `CN(C)C(=O)C(c1c(F)cccc1F)N1CCC[C@@H](NC(=O)c2ccc3[nH]nc(-c4ccncc4)c3c2)C1` (single isomer, unassigned) [drawing 507, N-((R)-1-((R or S)-1-(2,6-difluorophenyl)-2-(dimethyl-amino)-2-oxoethyl)piperidin-3-yl)-3-(pyridin-4-yl)-1H-indazole-5-carboxamide], the IC50 rises from 35.3 nM to 416 nM (12-fold).

Same assay, conditions: active ERK2; read-out: aErk2 Ic50

Compared with `COc1cccc(F)c1CN1C[C@H](NC(=O)c2ccc3[nH]nc(-c4ccnc(C)c4)c3c2)CC[C@H]1C(=O)NC1CCCC1`, `[2H]C([2H])([2H])Oc1cccc(F)c1CN1C[C@H](NC(=O)c2ccc3[nH]nc(-c4ccnc(C)c4)c3c2)CC[C@H]1C(=O)N1CCN(C(=O)OC(C)(C)C)CC1` is 8.6-fold lower in IC50: 105 nM for the first, 12.2 nM for the second. The second is the more potent here.

Compared with `COc1cccc(F)c1CN1C[C@H](NC(=O)c2ccc3[nH]nc(-c4ccc5nn(C)cc5c4)c3c2)CC[C@H]1C(=O)Nc1nccs1`, `COc1cccc(F)c1CN1C[C@H](NC(=O)c2ccc3[nH]nc(-c4ccc5nn(C)cc5c4)c3c2)CC[C@H]1C(=O)N(C)C` is 7.1-fold lower in IC50: 113 nM for the first, 15.9 nM for the second. The second is the more potent here.

`CCN(CC)C(=O)[C@@H]1CC[C@@H](NC(=O)c2ccc3[nH]nc(-c4ccnc(C)c4)c3c2)CN1Cc1cccs1` and `CCN(CC)C(=O)[C@@H]1CC[C@@H](NC(=O)c2ccc3[nH]nc(-c4ccc5nn(C)cc5c4)c3c2)CN1Cc1c(F)cccc1OC` are within 1.5-fold of each other in IC50: 28.2 nM for the first, 39.4 nM for the second.

Compared with `COc1cccc(F)c1CN1C[C@H](NC(=O)c2ccc3[nH]nc(-c4ccc5nn(C)cc5c4)c3c2)CC[C@H]1C(=O)N1CC(F)(F)C1`, `[2H]C([2H])([2H])Oc1cccc(F)c1CN1C[C@H](NC(=O)c2ccc3[nH]nc(-c4ccc5nc(C)sc5c4)c3c2)CC[C@H]1C(N)=O` is 6.7-fold lower in IC50: 22.8 nM for the first, 3.4 nM for the second. The second is the more potent here.

`[2H]C([2H])([2H])Oc1cccc(F)c1CN1C[C@H](NC(=O)c2ccc3[nH]nc(-c4ccc5nc(C)sc5c4)c3c2)CC[C@H]1C(=O)N1CCN(C(C)=O)CC1` and `[2H]C([2H])([2H])Oc1cccc(F)c1CN1C[C@H](NC(=O)c2ccc3[nH]nc(-c4ccc5nc(C)sc5c4)c3c2)CC[C@H]1C(=O)N1CCN(C(=O)OC(C)(C)C)CC1` are within 1.5-fold of each other in IC50: 63.1 nM for the first, 72.8 nM for the second.
